Experimental data from publication PMC7824535, “Inhibitory Effect of Antidesma bunius Fruit Extract on Carbohydrate Digestive Enzymes Activity and Protein Glycation In Vitro” (Antioxidants, 2020).
≈ marks a conversion by molar mass, not a printed value.

Biological target: T1, intestinal maltase
T1 construct: gene Mgam; native, supernatant of rat intestinal acetone powder, not purified; maltase activity of several enzymes
Test: glucose release by glucose oxidase method, […] nm
Type: biochemical
Settings: maltose substrate (86 mM stock, 30 µL), 0.1 M phosphate buffer pH 6.9, 37 °C, 30 min; crude rat intestinal extract

## C[C@H]1O[C@H](O[C@H]2[C@H](O)[C@@H](O)[C@@H](O[C@H]3[C@H](O)[C@@H](O)C(O)O[C@@H]3CO)O[C@@H]2CO)[C@H](O)[C@@H](O)[C@@H]1N[C@H]1C=C(CO)[C@@H](O)[C@H](O)[C@H]1O (stereo partly shown) [Acarbose]
  IC50 Values / Maltase: 0.89 ± 0.07 µg/mL (≈ 1.38 µM)
